According to patent USRE39591E1, “6-O-substituted ketolides having antibacterial activity” (Abbott Laboratories, priority 1996, dated 2007):

Test system: up to 32 different microorganisms
Test: in vitro antibacterial activity (MIC), agar dilution on Brain Heart Infusion (BHI) agar with Steers replicator
Type: cell-based
Details: unit assumed
In short: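 Up to 32 strains were replicator-inoculated (1:100, or 1:10 for Micrococcus and Streptococcus) onto BHI agar plates holding serial compound dilutions and kept 20-24 h at 35-37° C. Plates were read visually against drug-free growth controls, with erythromycin A run alongside; MIC was the lowest concentration giving no growth, slight haze or sparse colonies.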

[1] = Candida albicans CCH 442 (code TT)
[2] = Enterococcus faecism ATCC 8043 (code II)
[3] = Escherichia coli DC-2 (code SS)
[4] = Escherichia coli JUHL (code QQ)
[5] = Haemophilis influenzae DILL AMP R (code WW)
[6] = Micrococcus luteus ATCC 4698 (code PP)
[7] = Micrococcus luteus ATCC 9341 (code OO)
[8] = Mycobacterium smegmatis ATCC 114 (code UU)
[9] = Nocardia Asteroides ATCC9970 (code VV)
[10] = Staphylococcus aureus 1775 (code GG)
[11] = Staphylococcus aureus A5177 (code BB)
[12] = Staphylococcus aureus A-5278 (code CC)
[13] = Staphylococcus aureus ATCC 6538P (code AA)
[14] = Staphylococcus aureus CMX 553 (code FF)
[15] = Staphylococcus aureus CMX 642A (code DD)
[16] = Staphylococcus aureus NCTC10649M (code EE)
[17] = Staphylococcus epidermidis 3519 (code HH)
[18] = Streptococcus Pneumonia 5649 (code ZZA)
[19] = Streptococcus Pneumonia 5979 (code ZZ)
[20] = Streptococcus Pneumonia ATCC6303 (code XX)
[21] = Streptococcus Pneumonia GYR 1171 (code YY)
[22] = Streptococcus agalactiae CMX 508 (code KK)
[23] = Streptococcus bovis A-5169 (code JJ)
[24] = Streptococcus pyogenes 930 (code MM)
[25] = Streptococcus pyogenes EES61 (code LL)
[26] = Streptococcus pyogenes PIU 2548 (code NN)

## CC[C@H]1OC(=O)[C@H](C)C(=O)[C@H](C)[C@@H](O[C@@H]2O[C@H](C)C[C@H](N(C)C)[C@H]2O)[C@@](C)(OCCNOCc2ccc([N+](=O)[O-])cc2)C[C@@H](C)C(=O)[C@H](C)[C@H]2NC(=O)O[C@@]21C [Example 238, Compound of Formula (IX): L is CO, T is NH, R is —CH2CH2NHOCH2(4-NO2)-phenyl]
Organism code AA
  MIC: 0.2 µg/mL
Organism code BB
  MIC: 0.2 µg/mL
Organism code CC
  MIC: > 100 µg/mL
Organism code DD
  MIC: 0.39 µg/mL
Organism code EE
  MIC: 0.39 µg/mL
Organism code FF
  MIC: 0.39 µg/mL
Organism code GG
  MIC: > 100 µg/mL
Organism code HH
  MIC: 0.39 µg/mL
Organism code II
  MIC: 0.05 µg/mL
Organism code JJ
  MIC: 0.02 µg/mL
Organism code KK
  MIC: 0.02 µg/mL
Organism code LL
  MIC: 0.02 µg/mL
Organism code MM
  MIC: > 100 µg/mL
Organism code NN
  MIC: 0.2 µg/mL
Organism code OO
  MIC: 0.05 µg/mL
Organism code PP
  MIC: 0.2 µg/mL
Organism code QQ
  MIC: 100 µg/mL
Organism code RR
  MIC: 0.39 µg/mL
Organism code SS
  MIC: > 100 µg/mL
Organism code TT
  MIC: > 100 µg/mL
Organism code UU
  MIC: 0.2 µg/mL
Organism code VV
  MIC: 0.1 µg/mL
Organism code WW
  MIC: 8 µg/mL
Organism code XX
  MIC: 0.03 µg/mL
Organism code YY
  MIC: 0.03 µg/mL
Organism code ZZ
  MIC: > 64 µg/mL
Organism code ZZA
  MIC: 0.25 µg/mL

## CC[C@H]1OC(=O)[C@H](C)C(=O)[C@H](C)[C@@H](O[C@@H]2O[C@H](C)C[C@H](N(C)C)[C@H]2O)[C@@](C)(OCCNCCCc2cnc3ccccc3c2)C[C@@H](C)C(=O)[C@H](C)[C@H]2NC(=O)O[C@@]21C [Example 225, Compound of Formula (IX): L is CO, T is NH, R is —CH2CH2NHCH2CH2CH2-(3-quinolyl)]
Organism code AA
  MIC: 0.2 µg/mL
Organism code BB
  MIC: 0.39 µg/mL
Organism code CC
  MIC: > 100 µg/mL
Organism code DD
  MIC: 0.39 µg/mL
Organism code EE
  MIC: 0.39 µg/mL
Organism code FF
  MIC: 0.1 µg/mL
Organism code GG
  MIC: > 100 µg/mL
Organism code HH
  MIC: 0.2 µg/mL
Organism code II
  MIC: 0.05 µg/mL
Organism code JJ
  MIC: 0.01 µg/mL
Organism code KK
  MIC: 0.01 µg/mL
Organism code LL
  MIC: 0.01 µg/mL
Organism code MM
  MIC: > 100 µg/mL
Organism code NN
  MIC: 0.39 µg/mL
Organism code OO
  MIC: 0.02 µg/mL
Organism code PP
  MIC: 0.1 µg/mL
Organism code QQ
  MIC: 12.5 µg/mL
Organism code RR
  MIC: 0.1 µg/mL
Organism code SS
  MIC: 12.5 µg/mL
Organism code TT
  MIC: > 100 µg/mL
Organism code UU
  MIC: 3.1 µg/mL
Organism code VV
  MIC: 0.2 µg/mL
Organism code WW
  MIC: 4 µg/mL
Organism code XX
  MIC: 0.03 µg/mL
Organism code YY
  MIC: 0.06 µg/mL
Organism code ZZ
  MIC: > 128 µg/mL
Organism code ZZA
  MIC: 2 µg/mL

## CC[C@H]1OC(=O)[C@H](C)C(=O)[C@H](C)[C@@H](O[C@@H]2O[C@H](C)C[C@H](N(C)C)[C@H]2O)[C@@](C)(OCC=Cc2cnc3ccccc3c2)C[C@@H](C)C(=O)[C@H](C)[C@H]2NC(=O)O[C@@]21C [Example 104, Compound of Formula (IX): L is CO, T is NH, R is —CH2CH═CH-(3-quinolyl)]
[1]
  MIC: > 100 µg/mL
[2]
  MIC: 0.05 µg/mL
[3]
  MIC: 50 µg/mL
[4]
  MIC: 50 µg/mL
Escherichia coli SS (code RR)
  MIC: 0.39 µg/mL
[5]
  MIC: 2 µg/mL
[6]
  MIC: 0.05 µg/mL
[7]
  MIC: ≤ 0.005 µg/mL
[8]
  MIC: 0.39 µg/mL
[9]
  MIC: 0.01 µg/mL
[10]
  MIC: > 100 µg/mL
[11]
  MIC: 0.05 µg/mL
[12]
  MIC: > 100 µg/mL
[13]
  MIC: 0.05 µg/mL
[14]
  MIC: 0.1 µg/mL
[15]
  MIC: 0.05 µg/mL
[16]
  MIC: 0.1 µg/mL
[17]
  MIC: 0.05 µg/mL
[18]
  MIC: 0.25 µg/mL
[19]
  MIC: 16 µg/mL
[20]
  MIC: 0.03 µg/mL
[21]
  MIC: 0.03 µg/mL
[22]
  MIC: 0.01 µg/mL
[23]
  MIC: 0.01 µg/mL
[24]
  MIC: 1.56 µg/mL
[25]
  MIC: ≤ 0.005 µg/mL
[26]
  MIC: 0.1 µg/mL

## C=CCOC1(C)CC(C)C(=O)C(C)C2N(CC=C)C(=O)OC2(C)C(CC)OC(=O)C(C)C(=O)C(C)C1OC1OC(C)CC(N(C)C)C1O (stereo not shown) [Example 183, Compound of Formula (IX): L is CO, T is N (CH2CH═CH2), R is —CH2CH═CH2]
[1]
  MIC: > 100 µg/mL
[2]
  MIC: 3.1 µg/mL
[3]
  MIC: > 100 µg/mL
[4]
  MIC: > 100 µg/mL
Escherichia coli SS (code RR)
  MIC: 25 µg/mL
[5]
  MIC: > 128 µg/mL
[6]
  MIC: 25 µg/mL
[7]
  MIC: 6.2 µg/mL
[8]
  MIC: > 100 µg/mL
[9]
  MIC: 1.56 µg/mL
[10]
  MIC: > 100 µg/mL
[11]
  MIC: 25 µg/mL
[12]
  MIC: > 100 µg/mL
[13]
  MIC: 25 µg/mL
[14]
  MIC: 25 µg/mL
[15]
  MIC: 25 µg/mL
[16]
  MIC: 25 µg/mL
[17]
  MIC: 25 µg/mL
[18]
  MIC: 2 µg/mL
[19]
  MIC: > 128 µg/mL
[20]
  MIC: 2 µg/mL
[21]
  MIC: 2 µg/mL
[22]
  MIC: 1.56 µg/mL
[23]
  MIC: 0.78 µg/mL
[24]
  MIC: > 100 µg/mL
[25]
  MIC: 1.56 µg/mL
[26]
  MIC: 3.1 µg/mL

## CCC1OC(=O)C(C)C(=O)C(C)C(OC2OC(C)CC(N(C)C)C2OC(C)=O)C(C)(OCC=Cc2cnc3ccccc3c2)CC(C)C(=O)C(C)C2NC(=O)OC12C (stereo not shown) [Example 198, Compound of Formula (III): L is CO, T is NH, R^c is acetyl; R is —CH2CH═CH-(3-quinolyl)]
[1]
  MIC: > 100 µg/mL
[2]
  MIC: 0.02 µg/mL
[3]
  MIC: 50 µg/mL
[4]
  MIC: 50 µg/mL
Escherichia coli SS (code RR)
  MIC: 0.1 µg/mL
[6]
  MIC: 0.1 µg/mL
[7]
  MIC: ≤ 0.005 µg/mL
[8]
  MIC: 0.39 µg/mL
[9]
  MIC: 0.02 µg/mL
[10]
  MIC: > 100 µg/mL
[11]
  MIC: 0.05 µg/mL
[12]
  MIC: > 100 µg/mL
[13]
  MIC: 0.05 µg/mL
[14]
  MIC: 0.02 µg/mL
[15]
  MIC: 0.05 µg/mL
[16]
  MIC: 0.05 µg/mL
[17]
  MIC: 0.1 µg/mL
[22]
  MIC: ≤ 0.005 µg/mL
[23]
  MIC: ≤ 0.005 µg/mL
[24]
  MIC: 0.39 µg/mL
[25]
  MIC: ≤ 0.005 µg/mL
[26]
  MIC: 0.1 µg/mL

## CC[C@H]1OC(=O)[C@H](C)C(=O)[C@H](C)[C@@H](O[C@@H]2O[C@H](C)C[C@H](N(C)C)[C@H]2O)[C@@](C)(OCCNOCc2ccccc2)C[C@@H](C)C(=O)[C@H](C)[C@H]2NC(=O)O[C@@]21C [Example 237, Compound of Formula (IX): L is CO, T is NH, R is —CH2CH2NHOCH2(phenyl)]
Organism code AA
  MIC: 0.39 µg/mL
Organism code BB
  MIC: 0.39 µg/mL
Organism code CC
  MIC: > 100 µg/mL
Organism code DD
  MIC: 0.39 µg/mL
Organism code EE
  MIC: 0.39 µg/mL
Organism code FF
  MIC: 0.39 µg/mL
Organism code GG
  MIC: > 100 µg/mL
Organism code HH
  MIC: 0.39 µg/mL
Organism code II
  MIC: 0.1 µg/mL
Organism code JJ
  MIC: 0.05 µg/mL
Organism code KK
  MIC: 0.05 µg/mL
Organism code LL
  MIC: 0.05 µg/mL
Organism code MM
  MIC: > 100 µg/mL
Organism code NN
  MIC: 0.2 µg/mL
Organism code OO
  MIC: 0.05 µg/mL
Organism code PP
  MIC: 0.39 µg/mL
Organism code QQ
  MIC: > 100 µg/mL
Organism code RR
  MIC: 0.39 µg/mL
Organism code SS
  MIC: > 100 µg/mL
Organism code TT
  MIC: > 100 µg/mL
Organism code UU
  MIC: 0.78 µg/mL
Organism code VV
  MIC: 0.39 µg/mL
Organism code WW
  MIC: 16 µg/mL
Organism code XX
  MIC: 0.03 µg/mL
Organism code YY
  MIC: 0.03 µg/mL
Organism code ZZ
  MIC: > 128 µg/mL
Organism code ZZA
  MIC: 0.05 µg/mL
